Measurements: patent US20250361241A1, “HPK1 INHIBITOR AND MEDICAL USE THEREOF” (Betta Pharmaceuticals Co., Ltd., priority 2022, published 2025)
Where “and” joins values, the source holds several entries; their conditions need not be identical. Identical values can stand only once.

Columns and labels:
GLK = GLK (Homo sapiens (Human), UniProt Q8IVH8); assay: GLK kinase assay (1 mM ATP system), ADP-Glo; format: biochemical
Description: Solution […] The test compound was serially diluted using DMSO to 200 times the detection concentration. […] Centrifuge at 1000×g for 30 seconds and incubate at 25° C. for 15 minutes. • (5) Add ATP and substrate: Add 2 μL of 2×ATP-MBP solution to the 384-well plate and centrifuge at 1000×g for 30 seconds. Seal the plate with a sealing film and incubate at 25° C. for 60 minutes. • (6) Add ADP-Glo reagent: Add 4 μL ADP-Glo reagent (Promega, V9103) to the 384-well plate, centrifuge at 1000×g for 30 seconds, and incubate at 25° C. for 60 minutes. • (7) Detection of luminescent signal: Add 8 μL of luminescent detection reagent (Promega, V9103) to a 384-well plate, centrifuge at 1000×g for 30 seconds, and incubate at 25° C. for 60 minutes. The chemiluminescent signal was read using a BMG microplate reader. • (8) Calculation of percentage inhibition rate: […] See Table 2 for the GLK kinase IC50 data of the example compounds on […].

[1] = tested on: human peripheral blood mononuclear cells; assay: Detection of IFN-γ secretion in human peripheral blood mononuclear cells (anti-CD3/CD28 beads, ELISA); format: cell-based; conditions: for Maximum induction factor: IFN-γ secretion, human PBMC; for EC3x: concentration for IFN-γ secretion of human PBMC to reach 3 times the baseline, 3 days
Description: Pharmacological Experiment 4: Detection of IFN-γ Secretion in Human Peripheral Blood Monocytes
• (1) Take human peripheral blood mononuclear cells frozen in liquid nitrogen, thaw in a 37° C. water bath, add 5 mL of preheated RPMI-1640 complete medium (containing 10% fetal bovine serum and penicillin/streptomycin), centrifuge at 500 g for 10 minutes, and discard the supernatant; • (2) Resuspend the cells in RPMI-1640 complete medium, adjust the density to 5×10^6 cells/mL, inoculate in a low-adhesion 6-well plate (Corning, 3471), and culture at 37° C. for 2 days; • (3) Collect cultured human peripheral blood mononuclear cells, centrifuge at 500 g for 10 min, and discard the supernatant; • (4) Resuspend the cells in RPMI-1640 complete medium, adjust the density to 1×10^6 cells/mL, and inoculate them in a round-bottom 96-well plate (Jet Biofil, TCP-002-096), with 100 μL per well; • (5) Add 50 μL of the test compound to each well and incubate at 37° C. for 30 min; • (6) Take human anti-CD3/CD28 magnetic beads (Miltenyi, 130-091-441), wash once with RPMI-1640 complete medium, and adjust the density to 0.5×106 beads/mL for later use; • (7) After the compound incubation, 50 μL of anti-human CD3/CD28 magnetic beads were added to each well and cultured at 37° C. for 3 days, • (8) The cell culture supernatant was obtained and the IFN-γ secretion was detected using the Human IFN-gamma DuoSet ELISA kit (R&D, DY285B-05); • (9) The log value of concentration was used as the X-axis and the IFN-γ secretion amount was used as the Y-axis. The “log (agonist) vs. response−variable slope” equation of the analysis software GraphPad Prism 7 was used to fit the dose-effect curve, thereby obtaining the EC3x value and the maximum induction factor of the compound for the secretion of IFN-γ from human peripheral blood mononuclear cells to reach 3 times the baseline.

HPK1 = HPK1 (Homo sapiens (Human), UniProt Q92918); assay: HPK1 enzyme activity detection (1 mM ATP system), ADP-Glo with MBP substrate, Pharmacological Experiment 2; format: biochemical
Description: Pharmacological Experiment 2: […] The test compound was serially diluted using DMSO to 200 times the detection concentration. […] Centrifuge at 1000×g for 30 seconds and incubate at 25° C. for 15 minutes. • (5) Adding ATP and substrate: Add 2 μL of 2×ATP-MBP solution to the 384-well plate and centrifuge at 1000×g for 30 seconds. Seal the plate with a sealing film and incubate at 25° C. for 60 minutes. • (6) Add ADP-Glo reagent: Add 4 μL ADP-Glo reagent (Promega, V9103) to the 384-well plate, centrifuge at 1000×g for 30 seconds, and incubate at 25° C. for 60 minutes. • (7) Detection of luminescent signal; Add 8 μL of luminescent detection reagent (Promega, V9103) to a 384-well plate, centrifuge at 1000×g for 30 seconds, and incubate at 25° C. for 60 minutes. The chemiluminescent signal was read using a BMG instrument. • (8) Calculation of percentage inhibition rate: […] See Table 2 for the enzymatic IC 50 data of the example compounds on HPK1.

Chain of GLK (Q8IVH8 whole entry, species assumed): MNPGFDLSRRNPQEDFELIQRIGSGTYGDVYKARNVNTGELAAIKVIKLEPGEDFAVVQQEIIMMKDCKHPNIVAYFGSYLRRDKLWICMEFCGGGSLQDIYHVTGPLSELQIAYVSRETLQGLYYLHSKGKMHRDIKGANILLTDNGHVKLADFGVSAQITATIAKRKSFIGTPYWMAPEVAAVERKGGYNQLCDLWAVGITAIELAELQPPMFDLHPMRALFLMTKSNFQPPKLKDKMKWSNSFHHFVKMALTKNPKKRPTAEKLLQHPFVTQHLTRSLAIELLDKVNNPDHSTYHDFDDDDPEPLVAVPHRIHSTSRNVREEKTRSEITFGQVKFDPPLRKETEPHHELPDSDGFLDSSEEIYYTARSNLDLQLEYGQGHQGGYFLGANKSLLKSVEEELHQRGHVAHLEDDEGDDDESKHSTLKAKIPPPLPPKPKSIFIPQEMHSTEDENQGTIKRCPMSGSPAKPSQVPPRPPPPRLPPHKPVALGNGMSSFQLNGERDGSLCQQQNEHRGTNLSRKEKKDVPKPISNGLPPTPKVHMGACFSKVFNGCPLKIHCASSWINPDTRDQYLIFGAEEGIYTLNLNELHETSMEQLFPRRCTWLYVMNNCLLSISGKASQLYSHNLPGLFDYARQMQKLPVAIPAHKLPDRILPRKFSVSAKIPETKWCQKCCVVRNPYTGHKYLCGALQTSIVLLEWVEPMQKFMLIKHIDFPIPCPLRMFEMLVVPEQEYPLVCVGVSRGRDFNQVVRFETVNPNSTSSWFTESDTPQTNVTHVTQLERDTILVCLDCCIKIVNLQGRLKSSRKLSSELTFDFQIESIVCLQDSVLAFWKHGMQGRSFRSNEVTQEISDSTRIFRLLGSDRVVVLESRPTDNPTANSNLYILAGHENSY
Chain of HPK1 (Q92918 whole entry, species assumed): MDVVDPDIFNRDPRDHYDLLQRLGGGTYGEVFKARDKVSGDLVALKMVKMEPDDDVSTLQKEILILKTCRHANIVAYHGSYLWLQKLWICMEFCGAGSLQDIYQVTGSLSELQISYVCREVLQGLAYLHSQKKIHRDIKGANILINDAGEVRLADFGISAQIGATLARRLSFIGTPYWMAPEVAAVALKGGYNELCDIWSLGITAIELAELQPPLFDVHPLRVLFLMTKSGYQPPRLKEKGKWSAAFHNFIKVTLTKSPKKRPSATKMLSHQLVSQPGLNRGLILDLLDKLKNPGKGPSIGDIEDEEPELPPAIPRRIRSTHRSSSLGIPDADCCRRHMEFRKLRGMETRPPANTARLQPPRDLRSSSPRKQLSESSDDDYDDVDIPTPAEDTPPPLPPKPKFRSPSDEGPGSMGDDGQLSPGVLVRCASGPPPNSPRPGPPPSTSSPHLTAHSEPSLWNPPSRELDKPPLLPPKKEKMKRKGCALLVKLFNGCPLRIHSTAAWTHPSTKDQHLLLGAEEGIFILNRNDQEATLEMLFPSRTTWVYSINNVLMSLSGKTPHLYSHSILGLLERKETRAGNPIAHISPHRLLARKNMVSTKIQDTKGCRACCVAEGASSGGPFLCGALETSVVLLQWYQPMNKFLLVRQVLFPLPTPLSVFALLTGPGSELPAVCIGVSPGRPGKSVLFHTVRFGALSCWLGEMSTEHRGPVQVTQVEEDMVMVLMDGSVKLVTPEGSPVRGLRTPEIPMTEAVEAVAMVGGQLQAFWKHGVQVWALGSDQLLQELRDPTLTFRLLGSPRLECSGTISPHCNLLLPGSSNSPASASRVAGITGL

| Compound | IC50 (GLK) | Maximum induction factor [1] | EC3x [1] | IC50 (HPK1) |
| --- | --- | --- | --- | --- |
| 4-(7-FLUOROIMIDAZO[1,2-A]PYRIDIN-3-YL)-7-((2,3,5,6,7′,8′-HEXAHYDRO-6′H-SPIRO[PYRAN-4,5′-[1,7]NAPHTHYRIDINE]-2′-YL)AMINO)ISOINDOL-1-ONE [Compound 87] | 724 nM | 11.2 | 193 nM | 5.12 nM |
| 4-(7-FLUOROIMIDAZO[1,2-A]PYRIDIN-3-YL)-7-((7′-METHYL-2,3,5,6,7′,8′-HEXAHYDRO-6′-SPIRO[PYRAN-4,5′-[1,7]NAPHTHYRIDINE]-2′-YL)AMINO)ISOINDOL-1-ONE [Compound 50] | 1230 nM | 4.8 | 181 nM | 3.39 nM |
| CN(C)C1COC2(CCOCC2)c2ccc(Nc3ccc(-c4cnc5cc(F)ccn45)c4c3C(=O)NC4)nc21 (stereo not drawn) [Compound 49, 7-((8′-(DIMETHYLAMINO)-2,3,5,6,7′,8′-HEXAHYDROSPIRO[PYRAN-4,5′-PYRAN[4,3-B]PYRIDINE]-2′-YL)AMINO)-4-(7-FLUOROIMIDAZOLE[1,2-A]PYRIDIN-3-YL)ISOINDOL-1-ONE] | 338 nM | 10.7 and 5.7 | 152 nM and 294 nM | 4.44 nM |
| CN(C)C1CC2(CCOC2)c2ccc(Nc3ccc(-c4cnc5cc(F)ccn45)c4c3C(=O)NC4)nc21 (stereo not drawn) [Compound 58, 7-((7-(DIMETHYLAMINO)-4′,5′,6,7-TETRAHYDRO-2′H-SPIRO[CYCLOPENTANE[B]PYRIDINE-5,3′-FURAN]-2-YL)AMINO)-4-(7-FLUOROIMIDAZO[1,2-A]PYRIDIN-3-YL)ISOINDOL-1-ONE] | 1480 nM | 6.5 | 352 nM | 5.25 nM |
| O=C1NCc2c(-c3cnc4cc(F)ccn34)ccc(Nc3ccc4c(n3)C(NC3CC3)CC43CCOCC3)c21 (stereo not drawn) [Compound 62, 7-((7-(CYCLOPROPYLAMINO)-2′,3′,5′,6,6′,7-HEXAHYDROSPIRO[CYCLOPENTYL[B]PYRIDINE-5,4′-PYRAN]-2-YL)AMINO)-4-(7-FLUOROIMIDAZOLE[1,2-A]PYRIDIN-3-YL)ISOINDOL-1-ONE] | > 30000 nM | 4.9 | 241 nM | 10.2 nM |
| O=C1NCc2c(-c3cnc4cc(F)ccn34)ccc(Nc3ccc4c(n3)C(NCC(F)F)CC43CCOCC3)c21 (stereo not drawn) [Compound 105] | – | 14.1 | 58 nM | 5.26 nM |
| O=C1NCc2c(-c3cnc4cc(F)ccn34)ccc(Nc3ccc4c(n3)C(N3C5CCC3COC5)CC43CCOCC3)c21 (stereo not drawn) [Compound 115] | – | 9.6 | 225 nM | 7.15 nM |
| O=C1NCc2c(-c3cnc4n3CCOC4)ccc(Nc3ccc4c(n3)CNCC43CCOCC3)c21 [Compound 153] | 2170 nM | – | – | 34.5 nM |
| O=C1NCc2c(-c3cnn4c3CCCC4)ccc(Nc3ccc4c(n3)CNCC43CCOCC3)c21 [Compound 154] | 646 nM | – | – | 10.9 nM |
| CN(C)C1CC2(CCOCC2)c2ccc(Nc3ccc(-c4cnc5cc(C#N)ccn45)c4c3C(=O)NC4)nc21 (stereo not drawn) [Compound 157, 3-(7-((7-(DIMETHYLAMINO)-2′,3′,5′,6,6′,7-HEXAHYDROSPIRO]CYCLOPENTANE[B]PYRIDINE-5,4′-PYRAN]-2-YL)AMINO)-1-OXOISOINDOL-4-YL)IMIDAZO[1,2-A]PYRIDINE-7-CARBONITRILE] | 877 nM | – | – | 5.9 nM |
| CN(C)C1CC2(CCOCC2)c2ccc(Nc3ccc(-c4cnc5cc(C(F)F)ccn45)c4c3C(=O)NC4)nc21 (stereo not drawn) [Compound 160, 4-(7-(DIFLUOROMETHYL)IMIDAZO[1,2-A]PYRIDIN-3-YL)-7-((7-(METHYLAMINO)-2′,3′,5′,6,6′,7-HEXAHYDRO SPIRO[CYCLOPENTANE[B]PYRIDINE-5,4′-PYRAN]-2-YL)AMINO)ISOINDOL-1-ONE] | 460 nM | – | – | 6.57 nM |
| CN(C)C1CC2(CCOCC2)c2ccc(Nc3ccc(-c4cnc5n4CCOC5)c4c3C(=O)NC4)nc21 (stereo not drawn) [Compound 165, 4-(5,6-DIHYDRO-8H-IMIDAZO[2,1-C][1,4]OXAZIN-3-YL)-7-((7-(DIMETHYLAMINO)-2′,3′,5′,6,6′,7-HEXAHYDROSPIRO[CYCLOPENTA[B]PYRIDINE-5,4′-PYRAN]-2-YL)AMINO)ISOINDOL-1-ONE] | 1190 nM | – | – | 24.9 nM |
| O=C1NCc2c(-c3cnc4n3CCCC4)ccc(Nc3ccc4c(n3)CCCC43CCOCC3)c21 [Compound 167] | 1370 nM | – | – | 25.3 nM |
| N#Cc1ccn2c(-c3ccc(Nc4ccc5c(n4)C(N4CCCC4)CC54CCOCC4)c4c3CNC4=O)cnc2c1 (stereo not drawn) [Compound 168, 3-(1-OXO-7-((7-(PYRROLIDIN-1-YL)-2′,3′,5′,6,6′,7-HEXAHYDROSPIRO[CYCLOPENTA[B]PYRIDINE-5,4′-PYRAN]-2-YL)AMINO)ISOINDOL-4-YL)IMIDAZO[1,2-A]PYRIDINE-7-CARBONITRILE] | 289 nM | – | – | 5.27 nM |
| O=C1NCc2c(-c3cnc4cc(OC(F)F)ccn34)ccc(Nc3ccc4c(n3)C(N3CCCC3)CC43CCOCC3)c21 (stereo not drawn) [Compound 169, 4-(7-(DIFLUOROMETHOXY)IMIDAZO[1,2-A]PYRIDIN-3-YL)-7-((7-(PYRROLIDIN-1-YL)-2′,3′,5′,6,6′,7-HEXAHYDROSPIRO[CYCLOPENTA[B]PYRIDINE-5,4′-PYRAN]-2-YL)AMINO)ISOINDOL-1-ONE] | 223 nM | – | – | 9.19 nM |
| CN(C)C1CC2(CCOC2)c2ccc(Nc3ccc(-c4cnc5cc(OC(F)F)ccn45)c4c3C(=O)NC4)nc21 (stereo not drawn) [Compound 172, 4-(7-(DIFLUOROMETHOXY)IMIDAZO[1,2-A]PYRIDIN-3-YL)-7-((7-(METHYLAMINO)-4′,5′,6,7-TETRAHYDRO-2′-H-PYRIDO[CYCLOPENTYL[B]PYRIDINE-5,3′-FURAN]-2-YL)AMINO)ISOINDOLIN-1-ONE] | 1120 nM | – | – | 13.8 nM |
| CN(C)C1COC2(CCC2)c2ccc(Nc3ccc(-c4cnc5cc(F)ccn45)c4c3C(=O)NC4)nc21 (stereo not drawn) [Compound 173] | 3200 nM | – | – | 8.47 nM |
| CN(C)C1CC2(CCOCC2)c2ccc(Nc3ccc(-c4cnc5cc(N)ccn45)c4c3C(=O)NC4)nc21 (stereo not drawn) [Compound 174, 4-(7-AMINOIMIDAZO[1,2-A]PYRIDIN-3-YL)-7-((7-(DIMETHYLAMINO)-2′,3′,5′,6,6′,7-HEXAHYDROSPIRO[CY CLOPENTADIENYL[B]PYRIDINE-54′-PYRAN]-2-YL)AMINO)ISOINDOL-1-ONE] | 566 nM | – | – | 19.2 nM |
| O=C1NCc2c(-c3cnc4cc(OC(F)F)ccn34)ccc(Nc3ccc4c(n3)C(NC3CC3)CC43CCOCC3)c21 (stereo not drawn) [Compound 178, 7-((7-(CYCLOPROPYLAMINO)-2′,3′,5′,6,6′,7-HEXAHYDROSPIRO[CYCLOPENTADIENYL[B]PYRIDINE-54′-PYRAN]-2-YL)AMINO)-4-(7-(DIFLUOROMETHOXY)IMIDAZO[1,2-A]PYRIDIN-3-YL)ISOINDOLIN-1-ONE] | 1240 nM | – | – | 13.7 nM |
| CC(C)NC1CC2(CCOCC2)c2ccc(Nc3ccc(-c4cnc5cc(OC(F)F)ccn45)c4c3C(=O)NC4)nc21 (stereo not drawn) [Compound 179] | 970 nM | – | – | 8.85 nM |
| COc1ccn2c(-c3ccc(Nc4ccc5c(n4)C(N(C)C)CC54CCOC4)c4c3CNC4=O)cnc2c1 (stereo not drawn) [Compound 180, 7-((7-(DIMETHYLAMINO)-4′,5′,6,7-TETRAHYDRO-2′H-SPIRO[CYCLOPENTADIENYL[B]PYRIDINE-5,3′-FURAN]-2-YL)AMINO)-4-(7-METHOXYIMIDAZO[1,2-A]PYRIDIN-3-YL)ISOINDOLIN-1-ONE] | 3910 nM | – | – | 13.9 nM |
